The values that follow come from patent publication US8771754B2, “Use of GSK3 inhibitors in combination with radiation therapies” (priority 2004, dated 2014).

The assay deals with HT-22 hippocampal neuronal cells. In words: Apoptosis assay, Annexin V-FITC and propidium iodide flow cytometry. It is filed as cell-based, mouse. The following applies: for radiation-induced apoptosis, cells positive for apoptosis: HT-22, pretreated (LiCl 3 mM 7 days; inhibitor VIII 1 μM or SB415286 25 μM 24 h), 3 Gy, 24 h after irradiation, 3 Gy alone 53%, untreated 8%. As to the method:
Apoptosis assays. HT-22 cells were treated with LiCl (3 mM) for 7 days, with GSK3β inhibitor VIII (1 μM) or SB415286 (25 μM) for 24 hours prior to irradiation. Camptothecin (5 μM) was added to the HT-22 cells 6 hours prior to harvest as a positive control for apoptosis. The HT-22 cells with or without the inhibitors were irradiated with 3 Gy and harvested 24 hours post irradiation. Annexin V-FITC (5 ng) and propidium iodide (50 ng) were added to […]. Stained cells were analyzed by flow cytometry. The fraction of cells in each of the four gating windows (Q1-4) was calculated.
Apoptosis was studied in irradiated mouse HT-22 hippocampal neuronal cells pretreated with LiCl, GSK3β inhibitor VIII or SB415286. The fraction of cells in each of the four gating windows (Q1-4) was calculated and tabulated as the mean and SEM of 3 separate experiments. Camptothecin served as positive control for apoptosis and was added to HT-22 cells prior to staining for apoptosis. Camptothecin positive control induced apoptosis in 78.8% of cells. In comparison, 3 Gy irradiation induced apoptosis in 53% of cells, while 8% of untreated control cells stained positive for apoptosis (FIG. 2B). […] Lithium, as a nonspecific neuroprotector, attenuated radiation-induced apoptosis to 21.9% of cells (P=0.01, 3 Gy vs. 3 Gy+LiCl). The radioprotective effect of lithium in HT-22 neuronal cells was also analyzed by morphologic analysis using DAPI staining.

For the compound `CC[C@@]1(O)C(=O)OCc2c1cc1n(c2=O)Cc2cc3ccccc3nc2-1` [Camptothecin], the “apoptosis induced by positive control” value (HT-22, camptothecin 5 μM added 6 hours prior to harvest) was found to be 78.8%. As for `COc1ccc(CNC(=O)Nc2ncc([N+](=O)[O-])s2)cc1` [GSK3β inhibitor VIII], the “radiation-induced apoptosis, cells positive for apoptosis” value is 33.9%. The same measure, in the same setting: next, `O=C1NC(=O)C(c2ccccc2[N+](=O)[O-])=C1Nc1ccc(O)c(Cl)c1` [SB415286]: 41.4%.
